PMC11062922 (Nature Chemical Biology, 2023)

Legend:
ABL1 = ABL1 (Homo sapiens, UniProt P00519); experiment: Kinobeads two-dose competition binding: ABL1; conditions: sheet CATDS matrix 2; Gene Name ABL1
ATM = target: T1, ATM (Homo sapiens, UniProt Q13315); experiment: Kinobeads two-dose competition binding: ATM; conditions: for CATDS: target ATM
T1 construct: endogenous in cells
Excerpt: (§1) Briefly, Kinobeads comprise seven broad-spectrum small molecule kinase inhibitors immobilized on Sepharose beads. […]. Compounds of interest are set to compete for target protein binding with Kinobeads in the lysate and the amount of a given protein bound to Kinobeads in the presence of a compound can be quantified relative to a dimethylsulfoxide (DMSO) vehicle control by label-free mass spectrometry. This assay measures the physical interaction of a compound with thousands of endogenous proteins in parallel and, when systematically increasing the concentration of competitor, enables the calculation of an apparent interaction constant ( Kdapp ) for each compound and protein.
(§2) Kinobeads pulldown experiments were performed as described previously[13],[14],[17] with minor modification. […] The protein concentration was adjusted to 5 mg ml^−1. Kinase inhibitors were spiked into 0.5 ml of cell lysate at final concentrations of 100 and 1,000 nM (or DMSO, 0.3, 1, 3, 10, 30, 100, 300 and 1,000 nM for full dose experiments). […] Lysates were incubated for 45 min at 4 °C. Subsequently, lysates were incubated with Kinobeads ε (17.5 µl of settled beads) for 30 min at 4 °C. To assess the degree of protein depletion from the lysates by Kinobeads, the flow through of the DMSO control was recovered for a pulldown of pulldown experiment where the lysate was incubated a second time with fresh Kinobeads. Beads were washed in three steps with buffer containing 0.4%, 0.2% and no IGEPAL. Bound proteins were reduced with 50 mM DTT in 8 M Urea, 40 mM Tris-HCl pH 7.4 for 30 min at room temperature. After alkylation with 55 mM chloroacetamide, the urea concentration was reduced to 1–2 M and proteins were digested with trypsin. Acidified peptides were desalted and concentrated using SepPak tC18 µEluation plates (Waters). Samples were frozen, dried by vacuum centrifugation and stored at −20 °C.
(§3) Each kinase inhibitor was processed together with all DMSO controls of the same plate. Additionally, each search was supplemented with five high quality DMSO controls for consistent peptide identification and protein grouping. The resultant file (proteinGroups.txt) was used for subsequent filtering, normalization, data visualization and target annotation that was automatically performed by a data processing pipeline built in house that used R (including the ‘drc’ and ‘heatmap’ packages). First, reverse hits, potential contaminants and not quantified proteins in the DMSO control samples were discarded. Protein raw and label-free quantification intensities were normalized to the median DMSO control intensity to obtain relative residual binding intensities for each protein group at every inhibitor concentration and standard deviations of the DMSO control intensity were calculated. IC50 values were estimated based on the following equation IC50=I×100−inhibition/inhibition where [I] is the inhibitor concentration that was used for IC50 calculation and ‘inhibition’ the relative residual binding intensity. […]. Estimated Kdapp values were then calculated by multiplying the estimated IC50 values with a protein-dependent correction factor that was limited to a maximum value of one. The correction factor accounts for the depletion of a target protein from the lysate by Kinobeads. The depletion can be measured by the ratio of the amount of protein captured in two consecutive pulldowns of the same DMSO control lysate. In this study, correction factors were determined in separate experiments using the same lysate mixture and the same bead batch. Correction factors were set to the median of all correction factors. Targets of kinase inhibitors were annotated using the previously published random forest classifier. A training data set was annotated manually. […]

BMPR2 = target: T2, BMPR2 (Homo sapiens, UniProt Q13873); experiment: Kinobeads two-dose competition binding: BMPR2; conditions: for CATDS: target BMPR2
T2 construct: to maximize the representation of endogenous proteins; endogenous in cells
T2 sequence (Q13873 27-1038): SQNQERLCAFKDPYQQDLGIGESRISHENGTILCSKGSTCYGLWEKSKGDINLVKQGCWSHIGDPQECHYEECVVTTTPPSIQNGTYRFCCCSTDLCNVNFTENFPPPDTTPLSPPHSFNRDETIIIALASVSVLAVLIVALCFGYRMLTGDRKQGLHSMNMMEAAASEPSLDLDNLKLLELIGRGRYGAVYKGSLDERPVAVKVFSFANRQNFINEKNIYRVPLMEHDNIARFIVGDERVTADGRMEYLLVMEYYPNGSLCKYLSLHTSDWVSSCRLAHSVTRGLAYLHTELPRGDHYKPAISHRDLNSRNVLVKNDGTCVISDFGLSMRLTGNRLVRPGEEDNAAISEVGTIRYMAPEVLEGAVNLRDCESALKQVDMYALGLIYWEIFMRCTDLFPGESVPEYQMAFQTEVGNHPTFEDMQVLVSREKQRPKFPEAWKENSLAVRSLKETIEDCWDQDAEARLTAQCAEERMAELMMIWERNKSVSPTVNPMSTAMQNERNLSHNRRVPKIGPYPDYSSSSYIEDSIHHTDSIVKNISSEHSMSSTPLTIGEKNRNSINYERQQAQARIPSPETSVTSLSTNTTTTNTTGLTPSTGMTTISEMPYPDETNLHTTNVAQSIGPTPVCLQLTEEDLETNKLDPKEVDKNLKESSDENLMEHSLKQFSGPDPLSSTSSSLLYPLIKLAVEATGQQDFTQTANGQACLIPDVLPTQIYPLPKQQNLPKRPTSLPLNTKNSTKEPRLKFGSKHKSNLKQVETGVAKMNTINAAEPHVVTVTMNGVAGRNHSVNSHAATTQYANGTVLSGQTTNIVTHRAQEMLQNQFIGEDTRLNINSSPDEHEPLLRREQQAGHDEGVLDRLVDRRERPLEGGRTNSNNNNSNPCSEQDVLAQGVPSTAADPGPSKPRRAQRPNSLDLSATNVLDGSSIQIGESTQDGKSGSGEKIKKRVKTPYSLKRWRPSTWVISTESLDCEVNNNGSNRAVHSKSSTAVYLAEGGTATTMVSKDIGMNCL
Excerpt: as §1, §2, §3

ABL2 = target: T3, ABL2 (Homo sapiens, UniProt P42684); experiment: Kinobeads two-dose competition binding: ABL2; conditions: sheet CATDS matrix 2; Gene Name ABL2
T3 construct: endogenous in cells

CHECK1 = target: T4, CHECK1 (Homo sapiens, UniProt O14757); experiment: Kinobeads two-dose competition binding: CHECK1; conditions: for CATDS: target CHEK1
T4 construct: endogenous in cells
T4 sequence (O14757 1-476): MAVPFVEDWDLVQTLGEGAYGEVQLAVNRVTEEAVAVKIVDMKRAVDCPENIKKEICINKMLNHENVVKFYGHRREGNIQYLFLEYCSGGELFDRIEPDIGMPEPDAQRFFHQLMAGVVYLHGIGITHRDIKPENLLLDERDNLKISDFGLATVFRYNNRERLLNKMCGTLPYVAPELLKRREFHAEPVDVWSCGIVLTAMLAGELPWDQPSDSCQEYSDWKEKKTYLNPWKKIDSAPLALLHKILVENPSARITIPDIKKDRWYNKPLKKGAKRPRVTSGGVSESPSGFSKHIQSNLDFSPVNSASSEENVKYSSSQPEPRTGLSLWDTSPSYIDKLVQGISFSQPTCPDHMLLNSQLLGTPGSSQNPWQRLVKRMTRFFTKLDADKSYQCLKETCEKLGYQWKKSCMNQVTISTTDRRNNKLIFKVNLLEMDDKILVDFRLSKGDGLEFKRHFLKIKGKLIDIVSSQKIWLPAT
Excerpt: as §1, §2, §3

ABL1, sequence (P00519 28-1130 limits assumed): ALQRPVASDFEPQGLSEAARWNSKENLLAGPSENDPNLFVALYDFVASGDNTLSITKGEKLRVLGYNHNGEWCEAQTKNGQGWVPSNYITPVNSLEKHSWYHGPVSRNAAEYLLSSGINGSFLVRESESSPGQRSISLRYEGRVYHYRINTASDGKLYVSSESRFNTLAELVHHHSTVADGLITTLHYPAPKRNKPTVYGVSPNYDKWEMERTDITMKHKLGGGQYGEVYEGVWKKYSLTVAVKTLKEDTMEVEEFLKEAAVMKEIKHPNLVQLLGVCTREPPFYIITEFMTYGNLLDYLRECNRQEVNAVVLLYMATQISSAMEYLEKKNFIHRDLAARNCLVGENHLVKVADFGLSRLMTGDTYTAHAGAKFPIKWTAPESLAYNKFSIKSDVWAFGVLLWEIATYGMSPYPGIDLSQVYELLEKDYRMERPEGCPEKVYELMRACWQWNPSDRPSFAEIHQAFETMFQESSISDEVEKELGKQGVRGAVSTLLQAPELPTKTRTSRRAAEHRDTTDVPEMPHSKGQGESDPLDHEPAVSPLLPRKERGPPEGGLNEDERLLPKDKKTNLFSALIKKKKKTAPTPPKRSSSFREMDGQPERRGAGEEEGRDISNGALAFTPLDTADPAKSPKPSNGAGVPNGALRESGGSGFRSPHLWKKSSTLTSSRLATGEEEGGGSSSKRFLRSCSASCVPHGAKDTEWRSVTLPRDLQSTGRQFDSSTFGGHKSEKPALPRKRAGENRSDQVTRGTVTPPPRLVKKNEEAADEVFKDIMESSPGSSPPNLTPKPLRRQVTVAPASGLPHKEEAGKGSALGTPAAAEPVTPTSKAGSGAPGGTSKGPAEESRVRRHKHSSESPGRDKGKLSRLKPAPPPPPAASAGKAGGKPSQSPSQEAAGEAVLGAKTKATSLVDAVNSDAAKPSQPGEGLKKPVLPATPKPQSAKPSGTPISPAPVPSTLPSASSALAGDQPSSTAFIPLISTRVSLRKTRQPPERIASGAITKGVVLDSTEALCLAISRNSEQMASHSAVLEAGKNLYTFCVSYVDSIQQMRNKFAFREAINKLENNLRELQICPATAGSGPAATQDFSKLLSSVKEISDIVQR
T1 sequence (Q13315 whole entry): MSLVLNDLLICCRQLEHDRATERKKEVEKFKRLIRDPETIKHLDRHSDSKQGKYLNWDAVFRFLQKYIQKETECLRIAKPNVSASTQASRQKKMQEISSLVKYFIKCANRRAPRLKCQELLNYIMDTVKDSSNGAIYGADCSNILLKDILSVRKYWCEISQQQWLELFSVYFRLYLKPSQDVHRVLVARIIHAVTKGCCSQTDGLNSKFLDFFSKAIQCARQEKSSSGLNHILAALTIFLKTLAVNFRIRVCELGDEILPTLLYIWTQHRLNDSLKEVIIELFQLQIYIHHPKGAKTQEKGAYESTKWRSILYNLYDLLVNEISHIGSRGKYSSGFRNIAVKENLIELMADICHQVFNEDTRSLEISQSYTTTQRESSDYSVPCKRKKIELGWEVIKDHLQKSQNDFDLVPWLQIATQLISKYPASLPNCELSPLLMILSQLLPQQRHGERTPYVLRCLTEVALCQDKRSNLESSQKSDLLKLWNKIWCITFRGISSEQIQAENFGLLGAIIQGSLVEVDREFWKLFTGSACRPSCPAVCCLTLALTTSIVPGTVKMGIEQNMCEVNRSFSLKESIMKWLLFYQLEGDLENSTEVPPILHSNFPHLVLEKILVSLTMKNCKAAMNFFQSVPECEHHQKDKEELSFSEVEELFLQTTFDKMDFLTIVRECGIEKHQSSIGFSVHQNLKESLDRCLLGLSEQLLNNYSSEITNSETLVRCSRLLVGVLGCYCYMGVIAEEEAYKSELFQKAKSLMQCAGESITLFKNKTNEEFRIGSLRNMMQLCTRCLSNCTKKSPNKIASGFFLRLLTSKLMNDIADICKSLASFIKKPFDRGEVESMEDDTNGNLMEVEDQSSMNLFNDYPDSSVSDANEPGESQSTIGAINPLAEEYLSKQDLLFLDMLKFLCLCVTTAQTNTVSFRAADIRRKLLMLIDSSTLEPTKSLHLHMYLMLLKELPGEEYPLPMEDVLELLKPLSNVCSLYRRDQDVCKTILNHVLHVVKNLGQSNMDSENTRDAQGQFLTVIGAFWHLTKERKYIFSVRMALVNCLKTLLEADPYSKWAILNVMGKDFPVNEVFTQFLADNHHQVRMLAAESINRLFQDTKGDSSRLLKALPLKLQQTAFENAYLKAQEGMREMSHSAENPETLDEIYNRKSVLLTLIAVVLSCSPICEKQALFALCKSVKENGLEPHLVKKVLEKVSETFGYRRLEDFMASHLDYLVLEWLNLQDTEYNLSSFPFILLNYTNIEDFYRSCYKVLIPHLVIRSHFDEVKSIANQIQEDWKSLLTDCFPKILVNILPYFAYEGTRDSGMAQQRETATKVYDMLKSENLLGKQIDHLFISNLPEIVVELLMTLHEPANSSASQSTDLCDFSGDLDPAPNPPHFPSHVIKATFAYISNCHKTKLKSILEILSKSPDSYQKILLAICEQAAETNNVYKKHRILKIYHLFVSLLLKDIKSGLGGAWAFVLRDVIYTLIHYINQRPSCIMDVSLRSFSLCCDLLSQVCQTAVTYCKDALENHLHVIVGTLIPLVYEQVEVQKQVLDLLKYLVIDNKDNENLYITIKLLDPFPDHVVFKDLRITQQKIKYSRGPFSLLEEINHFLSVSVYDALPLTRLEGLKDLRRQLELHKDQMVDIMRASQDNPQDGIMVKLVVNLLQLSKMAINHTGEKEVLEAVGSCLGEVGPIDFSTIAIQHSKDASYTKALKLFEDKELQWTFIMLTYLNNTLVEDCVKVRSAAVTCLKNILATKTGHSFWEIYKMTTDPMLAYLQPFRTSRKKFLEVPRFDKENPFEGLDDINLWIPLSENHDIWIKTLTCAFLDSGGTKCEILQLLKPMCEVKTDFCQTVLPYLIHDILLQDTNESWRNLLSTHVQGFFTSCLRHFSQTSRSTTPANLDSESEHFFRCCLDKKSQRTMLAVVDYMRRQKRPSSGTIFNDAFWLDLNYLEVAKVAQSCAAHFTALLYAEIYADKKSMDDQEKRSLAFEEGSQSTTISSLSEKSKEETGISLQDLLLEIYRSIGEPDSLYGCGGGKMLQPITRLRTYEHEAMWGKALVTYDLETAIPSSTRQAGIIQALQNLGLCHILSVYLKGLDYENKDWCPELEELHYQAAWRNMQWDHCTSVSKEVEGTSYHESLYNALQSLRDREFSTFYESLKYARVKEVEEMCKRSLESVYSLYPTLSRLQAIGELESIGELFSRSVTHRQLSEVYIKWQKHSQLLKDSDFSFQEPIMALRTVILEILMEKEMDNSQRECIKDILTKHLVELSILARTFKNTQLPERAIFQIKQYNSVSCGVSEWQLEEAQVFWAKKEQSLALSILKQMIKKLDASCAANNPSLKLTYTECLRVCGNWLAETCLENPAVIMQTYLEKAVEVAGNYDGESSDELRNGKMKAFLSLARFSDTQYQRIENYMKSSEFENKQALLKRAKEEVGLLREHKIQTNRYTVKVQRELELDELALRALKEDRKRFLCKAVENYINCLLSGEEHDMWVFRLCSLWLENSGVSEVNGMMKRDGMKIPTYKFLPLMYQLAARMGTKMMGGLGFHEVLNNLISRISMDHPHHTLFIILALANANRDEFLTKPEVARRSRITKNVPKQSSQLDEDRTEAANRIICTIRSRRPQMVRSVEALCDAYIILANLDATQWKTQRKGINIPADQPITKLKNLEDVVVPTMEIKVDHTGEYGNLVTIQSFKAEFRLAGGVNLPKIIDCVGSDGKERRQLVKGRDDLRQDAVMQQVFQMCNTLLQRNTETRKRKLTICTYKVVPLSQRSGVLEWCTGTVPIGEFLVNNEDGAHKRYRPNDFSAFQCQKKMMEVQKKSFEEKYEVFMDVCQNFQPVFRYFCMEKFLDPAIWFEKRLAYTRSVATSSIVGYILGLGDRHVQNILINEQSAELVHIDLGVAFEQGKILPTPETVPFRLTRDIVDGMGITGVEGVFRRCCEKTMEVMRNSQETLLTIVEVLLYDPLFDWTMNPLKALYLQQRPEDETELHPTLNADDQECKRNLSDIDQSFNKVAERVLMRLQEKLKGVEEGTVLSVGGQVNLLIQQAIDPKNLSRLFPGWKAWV

potency estimated from few doses (ATM; Kinobeads two-dose, Drugmatrix - all 2, read-out: apparent Kd ATM) [nM]	potency estimated from few doses (BMPR2; Kinobeads two-dose, Drugmatrix - all 2, read-out: apparent Kd BMPR2) [nM]	SMILES	CATDS (ABL1)	CATDS (ABL2)	CATDS (ATM)	CATDS (CHECK1)	CATDS (BMPR2)	potency estimated from few doses (CHECK1; read-out: Lestaurtinib Drugmatrix value, Gene Name CHEK1) [nM]
112	646	CC(C)N1CC(=O)N(C)c2cnc(Nc3cccc(S(=O)(=O)CCN4CCOCC4)c3)nc21 [BI00009348]	0	0	–	–	–	–
–	–	CCc1cc2c(cc1N1CCC(N3CCOCC3)CC1)C(C)(C)c1[nH]c3cc(C#N)ccc3c1C2=O [Alectinib]	0	0	0	0	0	–
–	–	CN(C)C/C=C/C(=O)Nc1cc2c(Nc3ccc(F)c(Cl)c3)ncnc2cc1O[C@H]1CCOC1 [Afatinib]	0	–	0	0	0	–
–	–	C#Cc1cccc(Nc2ncnc3cc(OC)c(OC4CCN(C)CC4)cc23)c1 [BI00007366]	0	0	–	–	–	–
–	–	Nc1ncnc2[nH]c(-c3ccccc3)nc12 [AH5015_KCGS]	0	0	0	0	0	–
–	–	CCN1CCN(Cc2ccc(Nc3ncc(F)c(-c4cc(F)c5nc(C)n(C(C)C)c5c4)n3)nc2)CC1 [Abemaciclib]	0	0	0	0	0	–
–	–	C[C@]12O[C@H](C[C@]1(O)CO)n1c3ccccc3c3c4c(c5c6ccccc6n2c5c31)CNC4=O [Lestaurtinib]	–	–	–	–	–	98
–	–	N#CC1(c2ccc(NC(=O)c3cccnc3NCc3ccncc3)cc2)CCCC1 [Apatinib]	0	0	0	0	0	–
